Laboratory results: ChEMBL document CHEMBL3046533, “Molecular drug design, synthesis and pharmacophore site identification of spiroheterocyclic compounds: Trypanosoma crusi inhibiting studies” (Med Chem Res, 2013)

Legend:
Trypanosoma cruzi [1] = assay: Antitypanosomal activity against benznidazole-resistant trypomastigote stage of Trypanosoma cruzi Y assessed as parasite growth inhibition after 24 hr by hemacytometric analysis; type: functional, organism-based
Trypanosoma cruzi [2] = assay: Ratio of nifurtimox IC50 to compound IC50 for benznidazole-resistant trypomastigote stage of Trypanosoma cruzi Y; type: functional
Trypanosoma cruzi [3] = assay: Ratio of benznidazole IC50 to compound IC50 for benznidazole-resistant trypomastigote stage of Trypanosoma cruzi Y; type: functional
[4] = Cytotoxicity against Mus musculus BALB/c (mouse) splenocytes assessed as decrease in [3H]-thymidine incorporation after 24 hr by beta-radiation counting analysis; type: cell-based, Splenocyte; conditions: read-out: MNCC
Trypanosoma cruzi [5] = assay: Antitypanosomal activity against benznidazole-resistant epimastigote stage of Trypanosoma cruzi Y assessed as parasite growth inhibition after 11 days by hemacytometric analysis; type: functional, organism-based
[6] = Cytotoxicity against Mus musculus BALB/c (mouse) splenocytes assessed as decrease in [3H]-thymidine incorporation at 1 to 100 ug/mL after 24 hr by beta-radiation counting analysis relative to untreated control; type: cell-based; conditions: splenocyte
[7] = Trypanosoma cruzi, Y, 24 h, read-out: IC50
[8] = Trypanosoma cruzi, Y, 264 h, read-out: IC50

Structure (SMILES)	IC50 (Trypanosoma cruzi [1]; [7]) [µM]	Ratio IC50 (Trypanosoma cruzi [2])	Ratio IC50 (Trypanosoma cruzi [3])	MNTC at 24 h [4]	IC50 (Trypanosoma cruzi [5]; [8]) [µM]	IC50 (Trypanosoma cruzi [1])	Activity [6]	IC50 (Trypanosoma cruzi [5])
Cc1ccc(C2=NOC3(SCc4ccccc4C3=O)C2c2ccc(C)cc2)cc1 (stereo unspecified)	3.78	3	3	50 µg/mL	19.1			
O=C1c2ccccc2CSC12ON=C(c1ccc(Cl)cc1)C2c1ccc([N+](=O)[O-])cc1 (stereo unspecified)	22			5 µg/mL	20.5			
Cc1ccc(C2C(c3ccc([N+](=O)[O-])cc3)=NOC23SCc2ccccc2C3=O)cc1 (stereo unspecified)	45.4			50 µg/mL	27.9			
Cc1ccc(C2=NOC3(CSc4ccccc4C3=O)C2c2ccccc2)cc1 (stereo unspecified)						Not Active	Non-toxic	Not Active
O=C(Cn1ccnc1[N+](=O)[O-])NCc1ccccc1 [BENZNIDAZOLE]					6.6			
Cc1ccc(C2=NOC3(CSc4ccccc4C3=O)C2c2ccc([N+](=O)[O-])cc2)cc1 (stereo unspecified)						Not Active	Non-toxic	Not Active
COc1ccc(C2=NOC3(SCc4ccccc4C3=O)C2c2ccc(C)cc2)cc1 (stereo unspecified)	1.9	3	3	10 µg/mL	62.5			
COc1ccc(C2=NOC3(SCc4ccccc4C3=O)C2c2ccc(OC)cc2)cc1 (stereo unspecified)	1.5			50 µg/mL	1.95			
COc1ccc(C2C(c3ccc(C)cc3)=NOC23SCc2ccccc2C3=O)cc1 (stereo unspecified)	19			5 µg/mL	5.5			
CC1CS(=O)(=O)CCN1/N=C/c1ccc([N+](=O)[O-])o1 (stereo unspecified) [NIFURTIMOX]				3.4 µM				
COc1ccc(C2C(c3ccccc3)=NOC23CSc2ccccc2C3=O)cc1 (stereo unspecified)						Not Active	Non-toxic	Not Active
COc1ccc(C2C(c3ccc(C)cc3)=NOC23CSc2ccccc2C3=O)cc1 (stereo unspecified)						Not Active	Non-toxic	Not Active
